Reference: ChEMBL document CHEMBL1152117, “A versatile synthesis of 2-methoxyestradiol, an endogenous metabolite of estradiol which inhibits tubulin polymerization by binding to the colchicine binding site” (Bioorg Med Chem Lett, 1994)
The source made the active and inactive calls. No cut-off for these calls is given here.

Experiments:
[1] = tested on: Mus musculus; assay: In vivo inhibition of growth of solid tumors when administered orally in mice; Active; type: functional, organism-based
[2] = tested on: Mus musculus; assay: In vivo inhibition of neovascularization of solid tumors when administered orally in mice; Active; type: functional, organism-based

**Q.** How did the Activity [1] turn out when `COc1cc2c(cc1O)CC[C@@H]1[C@@H]2CC[C@]2(C)[C@@H](O)CC[C@@H]12` was run?
**A.** Its Activity is “Active”.

**Q.** And the Activity [2]?
**A.** Its Activity is “Active”.
